Results taken from article PMC12396409, “Screening and hit evaluation of a microbial metabolite library against the pathogenic Plasmodium falciparum and Toxoplasma gondii parasites” (International Journal for Parasitology: Drugs and Drug …, 2025).
Read-outs that look alike come from different tables or passages of the source.

Key:
[1] = test system: P. falciparum 3D7 parasites; test: P. falciparum growth inhibition assay, 1-cycle (72 h treatment), SYBR DNA staining (library screen at 2 μg/mL and dose-response); type: cell-based, Plasmodium falciparum; conditions: for activity at 2 µg/mL: Plasmodium falciparum, 3D7
[2] = test system: T. gondii RH strain (RH-Tub-eYFP) tachyzoites; test: microbe, parasite or virus in culture; type: cell-based, Toxoplasma gondii
[3] = test system: P. falciparum 3D7 parasites; test: P. falciparum growth inhibition assay, 2-cycle (120 h treatment), delayed-death screen and dose-response; type: cell-based, Plasmodium falciparum; conditions: for activity at 2 µg/mL: Plasmodium falciparum, 3D7
[4] = library screen at 2 μg/mL, 72 h, % growth, replicate 1
[5] = library screen at 2 μg/mL, 72 h, % growth, replicate 2
[6] = library screen at 2 μg/mL, 120 h, % growth, replicate 1
[7] = library screen at 2 μg/mL, 120 h, % growth, replicate 2
[8] = P. falciparum, 72 h, screen at 2 μg/mL, replicate 1
[9] = P. falciparum, 72 h, screen at 2 μg/mL, replicate 2
[10] = T. gondii, 72 h, screen at 2 μg/mL, replicate 1
[11] = T. gondii, 72 h, screen at 2 μg/mL, replicate 2
[12] = P. falciparum, 120 h, screen at 2 μg/mL, replicate 1
[13] = P. falciparum, 120 h, screen at 2 μg/mL, replicate 2
[14] = P. falciparum, 72 h, parasite screen 2 μg/mL, % growth, replicate 1, read-out: Pf_72h_%Growth_Rep1
[15] = P. falciparum, 72 h, parasite screen 2 μg/mL, % growth, replicate 2, read-out: Pf_72h_%Growth_Rep2
[16] = P. falciparum, 120 h, parasite screen 2 μg/mL, % growth, replicate 1, read-out: Pf_120h_%Growth_Rep1
[17] = P. falciparum, 120 h, parasite screen 2 μg/mL, % growth, replicate 2, read-out: Pf_120h_%Growth_Rep2

## Cc1cc(=O)c(O)cc2c1C[C@@H]1CC(C)(C)/C=C/C[C@@]3(C)Oc4cc(O)c(=O)cc(C)c4C[C@@H]3C[C@@H](O)[C@]1(C)O2 [Eupenifeldin]
[1]; P. falciparum, 2 μg/mL, 72 h
  1) Growth (%) at 72 h: 28.81%
[1]; P. falciparum, 72 h, 2 μg/mL, mean of both replicates, growth (% of control)
  Mean: 28.81
[1]; [4]
  Pf_72h_%Growth_Rep1: 0.51%
[1]; [5]
  Pf_72h_%Growth_Rep2: 57.11%
[2]; [4]
  Tg_72h_%Growth_Rep1: 1.55%
[2]; [5]
  Tg_72h_%Growth_Rep2: 1.71%
[3]; P. falciparum, 2 μg/mL, 120 h
  2) Growth (%) at 120 h: 14.46%
[3]; P. falciparum, growth at 72 h / growth at 120 h, 2 μg/mL
  3) Fold change (72 h/120 h): 2.0
[3]; [6]
  Pf_120h_%Growth_Rep1: 3.95%
[3]; [7]
  Pf_120h_%Growth_Rep2: 24.96%

## CC1=CCCC(C)C(O)C(C)C(O)CCC=CC(C)C(O)C=CC(C)C(O)C(C)=CC(O[C@H]2O[C@H](CO)[C@@H](O)[C@H](O)[C@@H]2O)C(O)CC(O)CC(O)CC(O)C(C)C(O)C(C)C(O)CC(O)CC(O)C=CCC(C(C)C(O)CCCN)OC1=O (stereo partly shown) [Desertomycin A]
[1]; [4]
  Pf_72h_%Growth_Rep1: 84.25%
[1]; [5]
  Pf_72h_%Growth_Rep2: 90.28%
[2]; [4]
  Tg_72h_%Growth_Rep1: 97.84%
[2]; [5]
  Tg_72h_%Growth_Rep2: 106.51%
[3]; [6]
  Pf_120h_%Growth_Rep1: 93.27%
[3]; [7]
  Pf_120h_%Growth_Rep2: 101.55%

## CC(/C=C/[C@@]1(C)[C@H](C)CCC(=O)[C@@H]1C)=C\Cc1c(O)c(Cl)c(C)c(C=O)c1O [Ascochlorin]
[1]; library screen at 2 μg/mL, 72 h, % growth, replicate 1, read-out: Pf_72h_%Growth_Rep1
  activity at 2 µg/mL: 79.8%
[1]; library screen at 2 μg/mL, 72 h, % growth, replicate 2, read-out: Pf_72h_%Growth_Rep2
  activity at 2 µg/mL: 84.8%
[2]; Toxoplasma gondii, 72 h, library screen at 2 μg/mL, 72 h, % growth, replicate 1; read-out: Tg_72h_%Growth_Rep1
  percent parasite growth at 2 µg/mL: 69.4%
[2]; Toxoplasma gondii, 72 h, library screen at 2 μg/mL, 72 h, % growth, replicate 2; read-out: Tg_72h_%Growth_Rep2
  percent parasite growth at 2 µg/mL: 87.7%
[3]; library screen at 2 μg/mL, 120 h, % growth, replicate 1, read-out: Pf_120h_%Growth_Rep1
  activity at 2 µg/mL: 141%
[3]; library screen at 2 μg/mL, 120 h, % growth, replicate 2, read-out: Pf_120h_%Growth_Rep2
  activity at 2 µg/mL: 86.1%

## C[C@@H]1C[C@H]2CC[C@H](O2)[C@H](C)C(=O)O[C@@H](C)C[C@@H]2CC[C@@H](O2)[C@@H](C)C(=O)O[C@H](C)C[C@H]2CC[C@@H](O2)[C@H](C)C(=O)O[C@@H](C)C[C@@H]2CC[C@@H](O2)[C@@H](C)C(=O)O1 [BIA-N1270]
[1]; P. falciparum 3D7, 72 h, parasite screen at 2 μg/mL, % growth, replicate 1
  Pf_72h_%Growth_Rep1: 6.60%
[1]; P. falciparum 3D7, 72 h, parasite screen at 2 μg/mL, % growth, replicate 2
  Pf_72h_%Growth_Rep2: 4.15%
[2]; T. gondii, 72 h, parasite screen at 2 μg/mL, % growth, replicate 1
  Tg_72h_%Growth_Rep1: 4.95%
[2]; T. gondii, 72 h, parasite screen at 2 μg/mL, % growth, replicate 2
  Tg_72h_%Growth_Rep2: 0.97%
[3]; P. falciparum 3D7, 120 h, parasite screen at 2 μg/mL, % growth, replicate 1
  Pf_120h_%Growth_Rep1: 46.69%
[3]; P. falciparum 3D7, 120 h, parasite screen at 2 μg/mL, % growth, replicate 2
  Pf_120h_%Growth_Rep2: 11.45%

## O=C(O)c1cccc2nc3ccccc3nc12 [Tubermycin B]
[1]; [8]
  Pf_72h_%Growth_Rep1: 44.49%
[1]; [9]
  Pf_72h_%Growth_Rep2: 34.95%
[2]; [10]
  Tg_72h_%Growth_Rep1: 87.24%
[2]; [11]
  Tg_72h_%Growth_Rep2: 96.39%
[3]; [12]
  Pf_120h_%Growth_Rep1: 88.83%
[3]; [13]
  Pf_120h_%Growth_Rep2: 26.83%

## CN(C)[C@@H]1C(O)=C(C(=O)NCN2CCCC2)C(=O)[C@@]2(O)C(O)=C3C(=O)c4c(O)cccc4[C@@](C)(O)[C@H]3C[C@@H]12 [Rolitetracycline]
[1]; [14]
  activity at 2 µg/mL: 87.6%
[1]; [15]
  activity at 2 µg/mL: 70%
[2]; Toxoplasma gondii, 72 h, T. gondii, 72 h, parasite screen 2 μg/mL, % growth, replicate 1; read-out: Tg_72h_%Growth_Rep1
  percent parasite growth at 2 µg/mL: 105%
[2]; Toxoplasma gondii, 72 h, T. gondii, 72 h, parasite screen 2 μg/mL, % growth, replicate 2; read-out: Tg_72h_%Growth_Rep2
  percent parasite growth at 2 µg/mL: 84.7%
[3]; [16]
  activity at 2 µg/mL: 82.2%
[3]; [17]
  activity at 2 µg/mL: 135%

## COc1cc(-c2ccccn2)nc(/C=N/O)c1SC [Collismycin]
[1]; [8]
  Pf_72h_%Growth_Rep1: 3.71%
[1]; [9]
  Pf_72h_%Growth_Rep2: 8.55%
[2]; [10]
  Tg_72h_%Growth_Rep1: -1.50%
[2]; [11]
  Tg_72h_%Growth_Rep2: 0.69%
[3]; [12]
  Pf_120h_%Growth_Rep1: -4.02%
[3]; [13]
  Pf_120h_%Growth_Rep2: 3.02%

## C=CC(C)(C)[C@@]12C[C@H]3C(=O)N/C(=C/c4c[nH]cn4)C(=O)N3[C@@H]1Nc1ccccc12 [Roquefortine C]
[1]; [14]
  activity at 2 µg/mL: 76.2%
[1]; [15]
  activity at 2 µg/mL: 78.8%
[2]; Toxoplasma gondii; T. gondii, 72 h, parasite screen 2 μg/mL, % growth, replicate 1; read-out: Tg_72h_%Growth_Rep1
  percent parasite growth at 2 µg/mL: 112%
[2]; Toxoplasma gondii; T. gondii, 72 h, parasite screen 2 μg/mL, % growth, replicate 2; read-out: Tg_72h_%Growth_Rep2
  percent parasite growth at 2 µg/mL: 89.5%
[3]; [16]
  activity at 2 µg/mL: 73.1%
[3]; [17]
  activity at 2 µg/mL: 98.8%
